Consider one molecule from ChEMBL document CHEMBL5543168, “Discovery of Urea Derivatives of Celastrol as Selective Peroxiredoxin 1 Inhibitors against Colorectal Cancer Cells” (J Med Chem, 2024).

Molecules are shown by their SMILES.

The test system of assay [1] is SW-620. The assay can be described thus: Induction of mitochondrial membrane potential depolarization in human SW620 cells assessed as JC-1-stained green cells upto 2 uM incubated for 48 hrs by flow cytometry (reference value: 8.9 %). It is filed as functional. The conditions noted are these: up to 2 µM.
Assay [2] has as its system SW-620. The assay can be described thus: Induction of mitochondrial membrane potential depolarization in human SW620 cells assessed as increase in green fluorescence incubated for 48 hrs by JC1-staining based CLSM analysis. Type of assay: functional, cell-based. As to conditions: dose 0.5-2 µM.
Assay [3] concerns SW-620. In words: Induction of apoptosis in human SW620 cells assessed as total apoptotic cells at 2 uM incubated for 48 hrs by Annexin V-FITC/PI staining based flow cytometry relative to control. Type of assay: functional. (In general: In flow cytometry, cells or beads pass a laser one at a time.)
In assay [4] the test system is SW-620. In words: Antitumor activity against human SW620 cells xenografted in BALB/c nude mouse at 2 mg/kg, ip qd for 16 days relative to control. Type of assay: functional. The conditions noted are these: SW-620, 384 h, time 16 day, read-out: TGI. For orientation: A xenograft is tissue or cells of one species grown in another, often human tumour cells in immunodeficient mice.

On to `COC(=O)C1(NC(=O)N[C@]2(C)CC[C@]3(C)CC[C@]4(C)C5=CC=C6C(=CC(=O)C(O)=C6C)[C@]5(C)CC[C@@]4(C)[C@@H]3C2)CCC1`, for which the Activity in the assay on SW-620 [1] was 54.6%; in the assay with SW-620 [2], “Dose-Dependent Effect”; with SW-620 [3] it was 54.7%. The inhibition in vivo at 2 mg/kg in the assay with SW-620 [4] was 45.4%.
